{"source": "patent US5362915A", "about": "“Phenyl-substituted cycloalkenyl compounds useful as PDE IV inhibitors” (SmithKline Beecham Pharma GmbH, priority 1990, dated 1994)", "key": {"[1]": {"target": "c-AMP phosphodiesterase (erythrocytes)", "assay": "Inhibition of Cyclic AMP Phosphodiesterase", "format": "biochemical", "conditions": "erythrocyte phosphodiesterase extract", "experimental": "The procedure used was that described by Arch, J. R. S. and Newsholme, E. A. in Biochem. J. 158, 603, (1976):\nErythrocytes were obtained from Na-citrate (16 mM; 0.1 ml/ml blood) anticoagulated blood by repeated centrifugation with removal of the buff coat and washing with an isotonic buffer (composition in mM: NaCl 13.7, KCl 4, CaCl2.2 H2 O 1.8, Na2 HPO4.12 H2 O 0.8, NaH2 PO4 0.2, MgSO4.7 H2 O 0.7, Hepes 3.4; pH 7.4).\nThe phosphodiesterase was extracted by mixing the erythrocytes with 4 volumes of 7 mM phosphate buffer, pH7.4, followed by sonification (3×10 sec; 100 W) and then centrifuging for 30 min at 4200×g.\nAll supernatants were diluted in the extraction medium and assayed for phosphodiesterase activity within 6 hours of preparation, using the radiochemical procedure described in the above mentioned reference."}, "[2]": {"test_system": "PDE IV (Ro 20-1724-inhibited)", "conditions": "human monocyte; cited from earlier work"}, "[3]": {"test_system": "PDE Ib (Ca^2 +/calmodulin-stimulated)", "conditions": "porcine aorta; cited from earlier work"}, "PDE III (cGMP-inhibited)": {"test_system": "PDE III (cGMP-inhibited)", "conditions": "guinea-pig heart; cited from earlier work"}, "[4]": {"test_system": "PDE Ic (Ca^2 +/calmodulin-stimulated)", "conditions": "guinea-pig heart; cited from earlier work"}}, "note": "pKi: −log10 of the molar value."}
{"smiles": "COc1ccc(C2=CC(=O)CC2)cc1OC1CCCC1", "note": "[Example 2, 1-(3-(Cyclopentyloxy-4-methoxy)-phenyl)-cyclopent-1,2-ene-3-one]", "values": [{"measurement": "pKi", "setting": "[1]", "value": 5.96}]}
{"smiles": "COc1ccc(C2CCCCC2)cc1OC1CCCC1", "note": "[Example 5, 1-Methoxy-2-cyclopentyloxy-4-cyclohexyl-benzene]", "values": [{"measurement": "pKi", "setting": "[1]", "value": 5.68}]}
{"smiles": "Nc1nc2c(ncn2[C@@H]2O[C@@H]3COP(=O)(O)O[C@H]3[C@H]2O)c(=O)[nH]1", "note": "[cGMP]", "values": [{"measurement": "Km", "setting": "[2]", "value": 38, "unit": "µM"}, {"measurement": "Km", "setting": "[3]", "value": 5, "unit": "µM"}, {"measurement": "Km", "setting": "PDE III (cGMP-inhibited)", "value": 8, "unit": "µM"}, {"measurement": "Km", "setting": "[4]", "value": 2, "unit": "µM"}]}
{"smiles": "COc1ccc(C2=CC(=O)CCC2)cc1OC", "note": "[Example 4, 1-(3,4-Dimethoxyphenyl)-cyclohex-1,2-ene-3-one]", "values": [{"measurement": "pKi", "setting": "[1]", "value": 5.52}]}
{"smiles": "COc1ccc(C2=CC(=O)CC2)cc1OC", "note": "[Example 1, 1-(3,4-Dimethoxyphenyl)-cyclopent-1,2-ene-3-one]", "values": [{"measurement": "pKi", "setting": "[1]", "value": 4.96}]}
{"smiles": "COc1ccc(C2=CC(=O)CCC2)cc1OC1CCCC1", "note": "[Example 3]", "values": [{"measurement": "pKi", "setting": "[1]", "value": 6.15}]}
{"smiles": "COc1ccc(C2CCCCC2)cc1OC", "note": "[Example 6, 1,2-Dimethoxy-4-cyclohexyl-benzene]", "values": [{"measurement": "pKi", "setting": "[1]", "value": 4.85}]}
